Test results taken from US11000033B2, “Ketone or oxime compound, and herbicide” (NISSAN CHEMICAL CORPORATION, priority 2014, dated 2021).

Experiments:
Type in all cases: in vivo
[1] = system: Monochoria vaginalis; test: Test Example 1: herbicidal activity, application before weed generation in submerged conditions (symbol C); settings: application herbicide amount 320 g/ha
Method in brief: (§1)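 Mixed weed seeds sown in alluvial soil under 4 cm of water, with rice seedlings at the 2.5-leaf stage added. Same-day treatment: emulsion diluted to a set herbicide amount onto the water. Three weeks at 25–30 °C, then graded on a six-step scale.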

[2] = system: Lolium multiflorum Lam.; test: Test Example 4: herbicidal effect by soil treatment (symbol K); settings: application herbicide amount 320 g/ha
Method in brief: (§2)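 Seeds were sown in sterilized diluvial soil, covered with about 1.5 cm of soil, and the soil surface was sprayed with a water-diluted emulsion of the compound at a predetermined rate. Plants grew in a greenhouse at 25° C. to 30° C.; effects were scored visually 3 weeks after application.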

[3] = system: Chenopodium album; test: Test Example 4: herbicidal effect by soil treatment (symbol O); settings: application herbicide amount 320 g/ha
Method in brief: as §2

[4] = system: transplanted rice plant; test: Test Example 1: effect on crop, application before weed generation in submerged conditions (symbol a); settings: application herbicide amount 320 g/ha
Method in brief: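 Rice at 2.5 leaf stage transplanted into submerged soil (4 cm depth) sown with three weed species; herbicide applied before weed emergence.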

[5] = system: soybean; test: Test Example 4: effect on crop by soil treatment (symbol d); settings: application herbicide amount 320 g/ha
Method in brief: (§3)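 Crop seed is sown in spots together with several weed species in a box of sterilized diluvial soil. It is covered by about 1.5 cm of soil and kept in a greenhouse held between 25° C. and 30° C.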

[6] = system: rice; test: Test Example 4: effect on crop by soil treatment (symbol b); settings: application herbicide amount 320 g/ha
Method in brief: as §3

[7] = system: Digitaria ciliaris; test: Test Example 5: herbicidal effect by foliage application, plastic box (symbol F); settings: 320 g/ha, 3 weeks after application
Method in brief: (§4)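 Herbicide, formulated as an emulsion and diluted in water, is sprayed onto the aerial parts of 14-day seedlings. These were grown at 25° C. to 30° C. in sterilized diluvial soil; effects are graded after 3 weeks.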

[8] = system: corn; test: Test Example 5: effect on crop by foliage application, plastic box (symbol c); settings: 320 g/ha, 3 weeks after application
Method in brief: (§5)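 Diluvial soil, sterilized and boxed (21 × 13 × 7 cm), received spot-sown seed covered by about 1.5 cm soil; plants were then greenhouse-grown at 25–30° C.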

[9] = system: Echinochloa oryzacola Vasing.; test: Test Example 1: herbicidal activity, application before weed generation in submerged conditions (symbol A); settings: application herbicide amount 320 g/ha
Method in brief: as §1

[10] = system: rice plant; test: Test Example 5: effect on crop by foliage application, plastic box (symbol b); settings: 320 g/ha, 3 weeks after application
Method in brief: as §5

[11] = system: Abutilon theophrasti; test: Test Example 5: herbicidal effect by foliage application, plastic box (symbol M); settings: 320 g/ha, 3 weeks after application
Method in brief: as §4

[12] = system: Lolium multiflorum Lam.; test: Test Example 5: herbicidal effect by foliage application, plastic box (symbol K); settings: 320 g/ha, 3 weeks after application
Method in brief: as §4

[13] = system: Amaranthus retroflexus; test: Test Example 5: herbicidal effect by foliage application, plastic box (symbol N); settings: 320 g/ha, 3 weeks after application
Method in brief: as §4

[14] = system: directly sowed rice plant; test: Test Example 3: effect on crop by foliage application, Wagner pot (symbol b); settings: application herbicide amount 320 g/ha
Method in brief: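 Greenhouse culture at 25–30 °C of seeded rice, Cyperus difformis, Leptochloa chinensis and Echinochloa crus-galli var. crus-galli, in alluvial soil held under 0.1–0.5 cm of water in a Wagner pot.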

[15] = system: Alopecurus myosuroides; test: Test Example 5: herbicidal effect by foliage application, plastic box (symbol J); settings: 320 g/ha, 3 weeks after application
Method in brief: as §4

[16] = system: Echinochloa crus-galli var. crus-galli; test: Test Example 5: herbicidal effect by foliage application, plastic box (symbol H); settings: 320 g/ha, 3 weeks after application
Method in brief: as §4

Row | Structure (SMILES) | Herbicidal effect grade, C: Monochoria vaginalis [1] | Herbicidal effect grade, K: Lolium multiflorum Lam. [2] | Herbicidal effect grade, O: Chenopodium album [3] | Effect grade on crop, a: transplanted rice plant [4] | Effect on crop grade, d: soybean [5] | Effect on crop grade, b: directly sowed rice plant [6] | F: Digitaria ciliaris, herbicidal effect (criteria of Test Example 1) [7] | c: corn, effect on crop (criteria of Test Example 1) [8] | Herbicidal effect grade, A: Echinochloa oryzacola Vasing. [9] | b: directly sowed rice plant, effect on crop (criteria of Test Example 1) [10] | M: Abutilon theophrasti, herbicidal effect (criteria of Test Example 1) [11] | K: Lolium multiflorum Lam., herbicidal effect (criteria of Test Example 1) [12] | N: Amaranthus retroflexus, herbicidal effect (criteria of Test Example 1) [13] | effect on crop b (directly sowed rice plant), grade 0-5 [14] | J: Alopecurus myosuroides, herbicidal effect (criteria of Test Example 1) [15] | H: Echinochloa crus-galli var. crus-galli, herbicidal effect (criteria of Test Example 1) [16]
1 | CON=C(C)CC1CC(O)=C(c2c(C)cc(-c3ccsc3)cc2C)C1=O (centres unmarked) [6-106] | 4 (Herbicidal ratio of 70% or higher and lower than 90%) | 3 (Herbicidal ratio of 40% or higher and lower than 70%) | 0 (Herbicidal ratio of 5% or lower (almost no effect)) | 5 (Herbicidal ratio of 90% or more (almost completely withered)) | 0 (Herbicidal ratio of 5% or lower (almost no effect)) | 1 (Herbicidal ratio of 5% or higher and lower than 20%) | 5 (Herbicidal ratio of 90% or more (almost completely withered)) | 5 (Herbicidal ratio of 90% or more (almost completely withered)) | 5 (Herbicidal ratio of 90% or more (almost completely withered)) | 3 (Herbicidal ratio of 40% or higher and lower than 70%) | 0 (Herbicidal ratio of 5% or lower (almost no effect)) | 5 (Herbicidal ratio of 90% or more (almost completely withered)) | 0 (Herbicidal ratio of 5% or lower (almost no effect)) | 5 (Herbicidal ratio of 90% or more (almost completely withered)) | 5 (Herbicidal ratio of 90% or more (almost completely withered)) | 5 (Herbicidal ratio of 90% or more (almost completely withered))
2 | CON=C(C)CC1CC(O)=C(c2c(F)cc(-c3ccccc3)cc2OC)C1=O (centres unmarked) [6-107] | 5 (Herbicidal ratio of 90% or more (almost completely withered)) | 1 (Herbicidal ratio of 5% or higher and lower than 20%) | 4 (Herbicidal ratio of 70% or higher and lower than 90%) | 5 (Herbicidal ratio of 90% or more (almost completely withered)) | 0 (Herbicidal ratio of 5% or lower (almost no effect)) | 5 (Herbicidal ratio of 90% or more (almost completely withered)) | 5 (Herbicidal ratio of 90% or more (almost completely withered)) | 5 (Herbicidal ratio of 90% or more (almost completely withered)) | 5 (Herbicidal ratio of 90% or more (almost completely withered)) | 5 (Herbicidal ratio of 90% or more (almost completely withered)) | 3 (Herbicidal ratio of 40% or higher and lower than 70%) | 5 (Herbicidal ratio of 90% or more (almost completely withered)) | 2 (Herbicidal ratio of 20% or higher and lower than 40%) | 5 (Herbicidal ratio of 90% or more (almost completely withered)) | 5 (Herbicidal ratio of 90% or more (almost completely withered)) | 5 (Herbicidal ratio of 90% or more (almost completely withered))
3 | CON=C(C)CC1CC(O)=C(c2c(F)cc(C)cc2OC)C1=O (centres unmarked) [6-108] | 0 (Herbicidal ratio of 5% or lower (almost no effect)) | 5 (Herbicidal ratio of 90% or more (almost completely withered)) | 5 (Herbicidal ratio of 90% or more (almost completely withered)) | 5 (Herbicidal ratio of 90% or more (almost completely withered)) | 0 (Herbicidal ratio of 5% or lower (almost no effect)) | 5 (Herbicidal ratio of 90% or more (almost completely withered)) | 5 (Herbicidal ratio of 90% or more (almost completely withered)) | 5 (Herbicidal ratio of 90% or more (almost completely withered)) | 4 (Herbicidal ratio of 70% or higher and lower than 90%) | 5 (Herbicidal ratio of 90% or more (almost completely withered)) | 5 (Herbicidal ratio of 90% or more (almost completely withered)) | 5 (Herbicidal ratio of 90% or more (almost completely withered)) | 5 (Herbicidal ratio of 90% or more (almost completely withered)) | 5 (Herbicidal ratio of 90% or more (almost completely withered)) | 5 (Herbicidal ratio of 90% or more (almost completely withered)) | 5 (Herbicidal ratio of 90% or more (almost completely withered))
4 | CON=C(C)CC1CC(OC(=O)N(C)C)=C(c2c(C)cc(C)cc2OC)C1=O (centres unmarked) [6-109] | 3 (Herbicidal ratio of 40% or higher and lower than 70%) | 5 (Herbicidal ratio of 90% or more (almost completely withered)) | 0 (Herbicidal ratio of 5% or lower (almost no effect)) | 5 (Herbicidal ratio of 90% or more (almost completely withered)) | 0 (Herbicidal ratio of 5% or lower (almost no effect)) | 1 (Herbicidal ratio of 5% or higher and lower than 20%) | 5 (Herbicidal ratio of 90% or more (almost completely withered)) | 5 (Herbicidal ratio of 90% or more (almost completely withered)) | 5 (Herbicidal ratio of 90% or more (almost completely withered)) | 5 (Herbicidal ratio of 90% or more (almost completely withered)) | 4 (Herbicidal ratio of 70% or higher and lower than 90%) | 5 (Herbicidal ratio of 90% or more (almost completely withered)) | 4 (Herbicidal ratio of 70% or higher and lower than 90%) | 5 (Herbicidal ratio of 90% or more (almost completely withered)) | 5 (Herbicidal ratio of 90% or more (almost completely withered)) | 5 (Herbicidal ratio of 90% or more (almost completely withered))
5 | CON=C(C)CC1CC(OC(=O)N2CCCC2)=C(c2c(C)cc(C)cc2OC)C1=O (centres unmarked) [6-110] | 0 (Herbicidal ratio of 5% or lower (almost no effect)) | 3 (Herbicidal ratio of 40% or higher and lower than 70%) | 0 (Herbicidal ratio of 5% or lower (almost no effect)) | 5 (Herbicidal ratio of 90% or more (almost completely withered)) | 0 (Herbicidal ratio of 5% or lower (almost no effect)) | 0 (Herbicidal ratio of 5% or lower (almost no effect)) | 5 (Herbicidal ratio of 90% or more (almost completely withered)) | 5 (Herbicidal ratio of 90% or more (almost completely withered)) | 5 (Herbicidal ratio of 90% or more (almost completely withered)) | 5 (Herbicidal ratio of 90% or more (almost completely withered)) | 4 (Herbicidal ratio of 70% or higher and lower than 90%) | 5 (Herbicidal ratio of 90% or more (almost completely withered)) | 0 (Herbicidal ratio of 5% or lower (almost no effect)) | 5 (Herbicidal ratio of 90% or more (almost completely withered)) | 5 (Herbicidal ratio of 90% or more (almost completely withered)) | 5 (Herbicidal ratio of 90% or more (almost completely withered))
